23 compounds from patent publication US20040097594A1 (priority 1998, published 2004) can be followed below.

A word on the IC50: it is the midpoint of a concentration-inhibition curve. As usually defined, the Ki is a dissociation constant, usually derived from enzyme kinetics or from competition with a known ligand.

Read-outs that look alike come from different tables or passages of the source.

In one assay the test system is HIV-1 (strain IIIB). The experiment in a line: microbe, parasite or virus in culture. The following applies: lower line of each compound's entry, read-out: IC50 (MT-4 cells). The class given is cell-based.
The target of the next assay is HIV-1 protease (Human immunodeficiency virus type 1 group M subtype B, UniProt P04585). Put plainly: biochemical.
The mark [1] stands for this setting: Human immunodeficiency virus 1, 120 h, MT4 cells infected with HIV-1 strain IIIB, 5 days.
[2] abbreviates: HIV-1 protease, upper line of each compound's entry, read-out: Ki (enzyme).
Setting [3] is: Human immunodeficiency virus 1, IIIB, MT4, 120 h, […].

In the case of `O=C(N[C@@H](Cc1ccccc1)[C@H](O)CN(OC1CCCCC1)S(=O)(=O)c1ccc2c(c1)OCO2)O[C@H]1CO[C@H]2OCC[C@H]21` [Compound 155, (3R,3aS,6aR)hexahydrofuro[2,3-b]furan-3-yl(1S,2R)-3-[(1,3-benzodioxol-5-ylsulfonyl)(cyclohexyloxy)amino]-1-benzyl-2-hydroxypropylcarbamate], the IC50 in the assay with HIV-1 (strain IIIB) (setting [1]) is no more than 100 nM. Also, the Ki at HIV-1 protease (setting [2]) is less than 1 nM.
Consider `CC(C)(C)OC(=O)N[C@@H](Cc1ccccc1)[C@H](O)CN(OC1CCCC1)S(=O)(=O)c1ccc2[nH]c(NC(=O)N3CCOCC3)nc2c1` [Compound 8], for which the IC50 with HIV-1 (strain IIIB) (setting [1]) was in the range of 500 to 1000 nM. Moreover, the Ki at HIV-1 protease (setting [2]) was less than 1 nM.
With `Nc1cccc(S(=O)(=O)N(C[C@@H](O)[C@H](Cc2ccccc2)NC(=O)O[C@H]2CO[C@H]3OCC[C@H]32)OC2CCCC2)c1` (single isomer, unassigned) [Compound 77], the IC50 in the assay on HIV-1 (strain IIIB) (setting [1]) is no more than 100 nM. The Ki on HIV-1 protease (setting [2]) is less than 1 nM.
Taken in the same sequence, the figures for `O=C(O)CNc1cccc(S(=O)(=O)N(CC(O)C(Cc2ccccc2)NC(=O)OC2COC3OCCC23)OC2CCCC2)c1` [Compound 35, 2-2-(3-[[(2R,3S)-3-([(3R,3aS,6aR)hexahydrofuro[2,3-b]furan-3-yloxy]carbonylamino)-hydroxy-4-phenylbutyl](cyclopentyloxy)amino]sulfonylanilino)acetic acid and 2-2-(3-[[(2R,3S)-3-([(3S,3aR,6aS)hexahydrofuro[2,3-b]furan-3-yloxy]carbonylamino)-hydroxy-4-phenylbutyl](cyclopentyloxy)amino]sulfonylanilino)acetic acid] were greater than 1000 nM and less than 1 nM.
For `CC(C)Oc1ccc(S(=O)(=O)N(C[C@@H](O)[C@H](Cc2ccccc2)NC(=O)OC2CO[C@H]3OCC[C@@H]23)OC2CCCC2)cc1` (stereo partly drawn) [Compound 141, (3R,3aS,6aR)hexahydrofuro[2,3-b]furan-3-yl N-((1S,2R)-1-benzyl-3-(cyclopentyloxy)[(4-isopropoxyphenyl)sulfonyl]amino-2-hydroxypropyl)carbamate], in the assay with HIV-1 (strain IIIB) (setting [3]), the IC50 is greater than 1000 nM. For the same compound, the inhibition constant (Ki) at HIV-1 protease (setting [2]) is less than 1 nM.
In the case of `CC(C)ON(C[C@@H](O)[C@H](Cc1ccccc1)NC(=O)O[C@H]1CO[C@H]2OCC[C@H]21)S(=O)(=O)c1cccc(N)c1` [Compound 38], the IC50 in the assay on HIV-1 (strain IIIB) (setting [1]) is no more than 100 nM. Besides, the inhibition constant (Ki) on HIV-1 protease (setting [2]) was less than 1 nM.
Taken in the same sequence, the figures for `O=C(N[C@@H](Cc1ccccc1)[C@H](O)CN(OC1CCOCC1)S(=O)(=O)c1cccc(O)c1)O[C@H]1CO[C@H]2OCC[C@H]21` [Compound 148, (3R,3aS,6aR)hexahydrofuro[2,3-b]furan-3-yl 1-benzyl-2-hydroxy-3-[[(3-hydroxyphenyl)sulfonyl](tetrahydro-2H-pyran-4-yloxy)amino]propylcarbamate] were no more than 100 nM and less than 1 nM.
Taken in the same sequence, the figures for `COc1ccc(S(=O)(=O)N(C[C@@H](O)[C@H](Cc2ccccc2)NC(=O)OCc2cccnc2)OC2CCCC2)cc1` [Compound 25, 3-pyridylmethyl N-((1S,2R)-1-benzyl-3-(cyclopentyloxy)[(4-methoxyphenyl)sulfonyl]amino-2-hydroxypropyl)carbamate] were 500 to 1000 nM and less than 1 nM.
For the compound `Nc1cccc(S(=O)(=O)N(C[C@@H](O)[C@H](Cc2ccccc2)NC(=O)O[C@H]2CCOC2)OC2CCCC2)c1` [Compound 27, (3S)tetrahydro-3-furanyl N-(1S,2R)-3-[[(3-aminophenyl)sulfonyl](cyclopentyloxy)amino]-1-benzyl-2-hydroxypropylcarbamate], in the assay with HIV-1 (strain IIIB) (setting [1]), the IC50 was 500 to 1000 nM. Besides, the inhibition constant Ki at HIV-1 protease (setting [2]) is less than 1 nM.
Taken in the same sequence, the figures for `Nc1nc2ccc(S(=O)(=O)N(C[C@@H](O)[C@H](Cc3ccccc3)NC(=O)OC3COCOC3)OC3CCCC3)cc2s1` [Compound 125] were no more than 100 nM and less than 1 nM.
With `O=C(N[C@@H](Cc1ccccc1)[C@H](O)CN(OC1CCCC1)S(=O)(=O)c1ccc2[nH]ncc2c1)OC1CO[C@H]2OCC[C@@H]12` (stereo partly drawn) [Compound 57, (3aS,6aR)Hexahydrofuro[2,3-b]furan-3-yl N-(1S,2R)-1-benzyl-3-[(cyclopentyloxy)(1H-indazol-5-ylsulfonyl)amino]-2-hydroxypropylcarbamate], the IC50 in the assay with HIV-1 (strain IIIB) (setting [1]) was no more than 100 nM. Also, at HIV-1 protease (setting [2]), the Ki was less than 1 nM.
Taken in the same sequence, the figures for `CCN(C)C(=O)CNc1cccc(S(=O)(=O)N(CC(O)C(Cc2ccccc2)NC(=O)OC2COC3OCCC23)OC2CCCC2)c1` (mixture of isomers) [Example 170, (3R,3aS,6aR)hexahydrofuro[2,3-b]furan-3-yl N-[(1S,2R)-1-benzyl-3-((cyclopentyloxy)[3-(2-[ethyl(methyl)amino]-2-oxoethylamino)phenyl]sulfonylamino)-2-hydroxypropyl)carbamate and (3S,3aR,6aS)hexahydrofuro[2,3-b]furan-3-yl N-[(1S,2R)-1-benzyl-3-((cyclopentyloxy)[3-(2-[ethyl(methyl)amino]-2-oxoethylamino)phenyl]sulfonylamino)-2-hydroxypropyl]carbamate] were no more than 100 nM and less than 1 nM.
Taken in the same sequence, the figures for `COC(=O)Nc1n[nH]c2ccc(S(=O)(=O)N(C[C@@H](O)[C@H](Cc3ccccc3)NC(=O)OC3COCOC3)OC3CCCC3)cc12` [Compound 104, 1,3-Dioxan-5-yl-N-(1S,2R)-1-benzyl-3-[(cyclopentyloxy)(3-(carbomethoxyamino)-indazole-5-ylsulfonyl)amino]-2-hydroxypropylcarbamate] were no more than 100 nM and less than 1 nM.
`COc1ccc(S(=O)(=O)N(C[C@@H](O)[C@H](Cc2ccccc2)NC(=O)OC(C)(C)C)OC2CCCCC2)cc1` [Compound 23, tert-butyl N-((1S,2R)-1-benzyl-3-(cyclohexyloxy)[(4-methoxyphenyl)sulfonyl]amino-2-hydroxypropyl)carbamate]: the concentration for half-maximal inhibition (IC50) in the assay with HIV-1 (strain IIIB) (setting [1]) was greater than 1000 nM. The same compound gave a Ki on HIV-1 protease of 1 to 10 nM.
As to `CC(C)COC(=O)N(CC(=O)NCCO)c1cccc(S(=O)(=O)N(CC(O)C(Cc2ccccc2)NC(=O)OC2COC3OCCC23)OC2CCCC2)c1` [Compound 37, (3R,3aS,6aR)hexahydrofuro[2,3-b]furan-3-yl N-(1S,2R)-1-benzyl-3-[(cyclopentyloxy)(3-[2-[(2-hydroxyethyl)amino]-2-oxoethyl(isobutoxycarbonyl)amino)phenylsulfonyl)amino]-2-hydroxypropylcarbamate and (3S,3aR,6aS)hexahydrofuro[2,3-b]furan-3-yl N-(1S,2R)-1-benzyl-3-[(cyclopentyloxy)(3-[2-[(2-hydroxyethyl)amino]-2-oxoethyl(isobutoxycarbonyl)amino]phenylsulfonyl)amino]-2-hydroxypropylcarbamate], the IC50 in the assay with HIV-1 (strain IIIB) (setting [1]) was no more than 100 nM. The inhibition constant Ki at HIV-1 protease (setting [2]) was less than 1 nM.
With `CCC(CC)ON(C[C@@H](O)[C@H](Cc1ccccc1)NC(=O)O[C@H]1CO[C@H]2OCC[C@H]21)S(=O)(=O)c1ccc(N)cc1` [Example 163, (3R,3aS,6aR)hexahydrofuro[2,3-b]furan-3-yl(1S,2R)-3-[[(4-aminophenyl)sulfonyl](1-ethylpropoxy)amino]-1-benzyl-2-hydroxypropylcarbamate], the IC50 in the assay with HIV-1 (strain IIIB) (setting [1]) is no more than 100 nM. Moreover, the Ki at HIV-1 protease (setting [2]) was less than 1 nM.
Taken in the same sequence, the figures for `O=C(N[C@@H](Cc1ccccc1)[C@H](O)CN(OC1CCOCC1)S(=O)(=O)c1ccc(O)cc1)O[C@H]1CO[C@H]2OCC[C@H]21` [Compound 149, (3R,3aS,6aR)hexahydrofuro[2,3-b]furan-3-yl 1-benzyl-2-hydroxy-3-[[(4-hydroxyphenyl)sulfonyl](tetrahydro-2H-pyran-4-yloxy)amino]propylcarbamate] were no more than 100 nM and less than 1 nM.
Taken in the same sequence, the figures for `CCC(C)ON(C[C@@H](O)[C@H](Cc1ccccc1)NC(=O)OC1CCOC1)S(=O)(=O)c1ccc(OC)cc1` (stereo partly drawn) [Compound 67, (3S)tetrahydro-3-furanyl N-((1S,2R)-1-benzyl-3-sec-butoxy[(4-methoxyphenyl)sulf-onyl]amino-2-hydroxypropyl)carbamate] were 100 to 500 nM and less than 1 nM.
With `COc1ccc(S(=O)(=O)N(C[C@@H](O)[C@H](Cc2ccccc2)NC(=O)OC(C)(C)C)OC(C)C)cc1` [Compound 6], the IC50 with HIV-1 (strain IIIB) (setting [1]) is greater than 1000 nM. Moreover, the Ki on HIV-1 protease is 10 to 100 nM.
Regarding `CC(C)Oc1cccc(S(=O)(=O)N(C[C@@H](O)[C@H](Cc2ccccc2)NC(=O)OC2CO[C@H]3OCC[C@@H]23)OC2CCCC2)c1` (stereo partly drawn) [Compound 142, (3R,3aS,6aR)hexahydrofuro[2,3-b]furan-3-yl N-((1S,2R)-1-benzyl-3-(cyclopentyloxy)[(3-isopropoxyphenyl)sulfonyl]amino-2-hydroxypropyl)carbamate], in the assay on HIV-1 (strain IIIB) (setting [3]), the IC50 fell in the range of 100 to 500 nM. For the same compound, at HIV-1 protease (setting [2]), the Ki was less than 1 nM.
Consider `CCC(C)ON(C[C@@H](O)[C@H](Cc1ccccc1)NC(=O)OC(C)(C)C)S(=O)(=O)c1ccc(OC)cc1` (stereo partly drawn) [Compound 15, tert-butyl N-((1S,2R)-1-benzyl-3-sec-butoxy[(4-methoxyphenyl)sulfonyl]amino-2-hydroxypropyl)carbamate], for which, in the assay on HIV-1 (strain IIIB) (setting [1]), the IC50 is greater than 1000 nM. In addition, at HIV-1 protease (setting [2]), the Ki lay within 1 to 10 nM.
Taken in the same sequence, the figures for `O=C(N[C@@H](Cc1ccccc1)[C@H](O)CN(OC1CCOCC1)S(=O)(=O)c1ccc2c(c1)OCCO2)O[C@H]1CO[C@H]2OCC[C@H]21` [Compound 150, (3R,3aS,6aR)hexahydrofuro[2,3-b]furan-3-yl 1-benzyl-3-[(2,3-dihydro-1,4-benzodioxin-6-ylsulfonyl)(tetrahydro-2H-pyran-4-yloxy)amino]-2-hydroxypropylcarbamate] were no more than 100 nM and less than 1 nM.
Take `COc1ccc(S(=O)(=O)N(C[C@@H](O)[C@H](Cc2ccccc2)NC(=O)OC(C)(C)C)OC2CCCC2)cc1` [Compound 7]: the half-maximal inhibitory concentration (IC50) in the assay on HIV-1 (strain IIIB) (setting [1]) was greater than 1000 nM. This compound also yielded a Ki on HIV-1 protease of 1 to 10 nM.
